Test results reported in ChEMBL document CHEMBL3046208, “Natural and synthetic podolactones with potential use as natural herbicide models” (2000).
Calls of active or inactive are those of the source. The calls are words filed in the database; no cut-off is given here.

Key:
Type in all cases: functional
Triticum aestivum [1] = experiment: Inhibition of root length of Triticum aestivum (wheat) at 0.1 mM after 5 days relative to untreated control
Lepidium sativum [2] = experiment: Inhibition of shoot length of Lepidium sativum at 0.1 mM after 5 days relative to untreated control; details: 120 h
Solanum lycopersicum [3] = experiment: Inhibition of germination of Solanum lycopersicum (tomato) at 0.1 mM after 5 days relative to untreated control
Allium cepa [4] = experiment: Inhibition of germination of Allium cepa (onion) at 1 uM after 5 days relative to untreated control; details: 120 h
Hordeum vulgare [5] = experiment: Inhibition of germination of Hordeum vulgare (barley) at 0.1 mM after 5 days relative to untreated control; details: 120 h
Allium cepa [6] = experiment: Inhibition of root length of Allium cepa (onion) at 0.1 mM after 5 days relative to untreated control
Solanum lycopersicum [7] = experiment: Stimulation of germination of Solanum lycopersicum (tomato) at 0.1 mM after 5 days relative to untreated control
Hordeum vulgare [8] = experiment: Stimulation of root length of Hordeum vulgare (barley) at 0.1 mM after 5 days relative to untreated control
Solanum lycopersicum [9] = experiment: Stimulation of root length of Solanum lycopersicum (tomato) at 10 nM after 5 days relative to untreated control
Lactuca sativa [10] = experiment: Stimulation of root length of Lactuca sativa cv. Nigra (lettuce) at 0.1 mM after 5 days relative to untreated control
Lepidium sativum [11] = experiment: Inhibition of germination of Lepidium sativum at 0.1 mM after 5 days relative to untreated control
Triticum aestivum [12] = experiment: Stimulation of germination of Triticum aestivum (wheat) at 0.1 mM after 5 days relative to untreated control
Triticum aestivum [13] = experiment: Inhibition of shoot length of Triticum aestivum (wheat) at 0.1 mM after 5 days relative to untreated control
Hordeum vulgare [14] = experiment: Inhibition of shoot length of Hordeum vulgare (barley) at 0.1 mM after 5 days relative to untreated control
Solanum lycopersicum [15] = experiment: Inhibition of root length of Solanum lycopersicum (tomato) at 0.1 mM after 5 days relative to untreated control; details: 120 h
Lepidium sativum [16] = experiment: Stimulation of shoot length of Lepidium sativum at 0.1 mM after 5 days relative to untreated control
Hordeum vulgare [17] = experiment: Stimulation of germination of Hordeum vulgare (barley) at 0.1 mM after 5 days relative to untreated control
Lepidium sativum [18] = experiment: Stimulation of root length of Lepidium sativum at 0.1 mM after 5 days relative to untreated control
Lepidium sativum [19] = experiment: Stimulation of germination of Lepidium sativum at 0.1 mM after 5 days relative to untreated control
Lactuca sativa [20] = experiment: Inhibition of root length of Lactuca sativa cv. Nigra (lettuce) at 0.1 mM after 5 days relative to untreated control; details: 120 h
Allium cepa [21] = experiment: Inhibition of germination of Allium cepa (onion) at 0.1 mM after 5 days relative to untreated control
Lactuca sativa [22] = experiment: Inhibition of germination of Lactuca sativa cv. Roman (lettuce) at 0.1 mM after 5 days relative to untreated control
Lactuca sativa [23] = experiment: Stimulation of root length of Lactuca sativa cv. Roman (lettuce) at 0.1 mM after 5 days relative to untreated control
Lactuca sativa [24] = experiment: Inhibition of shoot length of Lactuca sativa cv. Nigra (lettuce) at 0.1 mM after 5 days relative to untreated control; details: 120 h
Hordeum vulgare [25] = experiment: Stimulation of shoot length of Hordeum vulgare (barley) at 0.1 mM after 5 days relative to untreated control
Triticum aestivum [26] = experiment: Stimulation of root length of Triticum aestivum (wheat) at 0.1 mM after 5 days relative to untreated control
Solanum lycopersicum [27] = experiment: Inhibition of shoot length of Solanum lycopersicum (tomato) at 0.1 mM after 5 days relative to untreated control; details: 120 h
Triticum aestivum [28] = experiment: Stimulation of shoot length of Triticum aestivum (wheat) at 0.1 mM after 5 days relative to untreated control
Allium cepa [29] = experiment: Stimulation of root length of Allium cepa (onion) at 0.1 mM after 5 days relative to untreated control
Lactuca sativa [30] = experiment: Inhibition of germination of Lactuca sativa cv. Nigra (lettuce) at 0.1 mM after 5 days relative to untreated control; details: 120 h
Lactuca sativa [31] = experiment: Inhibition of shoot length of Lactuca sativa cv. Roman (lettuce) at 0.1 mM after 5 days relative to untreated control; details: 120 h
Lactuca sativa [32] = experiment: Stimulation of germination of Lactuca sativa cv. Nigra (lettuce) at 0.1 mM after 5 days relative to untreated control
Hordeum vulgare [33] = experiment: Inhibition of root length of Hordeum vulgare (barley) at 0.1 mM after 5 days relative to untreated control; details: 120 h
Solanum lycopersicum [34] = experiment: Stimulation of shoot length of Solanum lycopersicum (tomato) at 0.1 mM after 5 days relative to untreated control
Lepidium sativum [35] = experiment: Inhibition of root length of Lepidium sativum at 0.1 mM after 5 days relative to untreated control; details: 120 h
Lactuca sativa [36] = experiment: Inhibition of root length of Lactuca sativa cv. Roman (lettuce) at 0.1 mM after 5 days relative to untreated control
Allium cepa [37] = experiment: Inhibition of shoot length of Allium cepa (onion) at 0.1 mM after 5 days relative to untreated control; details: 120 h
Allium cepa [38] = experiment: Stimulation of shoot length of Allium cepa (onion) at 0.1 mM after 5 days relative to untreated control
Solanum lycopersicum [39] = experiment: Stimulation of root length of Solanum lycopersicum (tomato) at 0.1 mM after 5 days relative to untreated control
Lactuca sativa [40] = experiment: Stimulation of germination of Lactuca sativa cv. Roman (lettuce) at 0.1 mM after 5 days relative to untreated control
Lactuca sativa [41] = experiment: Stimulation of shoot length of Lactuca sativa cv. Roman (lettuce) at 0.1 mM after 5 days relative to untreated control
Lactuca sativa [42] = experiment: Stimulation of shoot length of Lactuca sativa cv. Nigra (lettuce) at 0.1 mM after 5 days relative to untreated control
Allium cepa [43] = experiment: Stimulation of germination of Allium cepa (onion) at 0.1 mM after 5 days relative to untreated control
Triticum aestivum [44] = experiment: Inhibition of germination of Triticum aestivum (wheat) at 0.1 mM after 5 days relative to untreated control
Hordeum vulgare [45] = experiment: Inhibition of germination of Hordeum vulgare (barley) at 10 nM after 5 days relative to untreated control; details: 120 h

**Q.** Which inhibition at 100 µM (Triticum aestivum [1]; 120 h) does the source give for COC(=O)[C@@]1(C)CCC[C@@]2(C)[C@H]1CC[C@H]1COC(=O)C[C@@H]12 here?
**A.** < 20%

**Q.** What about the inhibition at 100 µM (Lepidium sativum [2]) of the same molecule?
**A.** 20%

**Q.** What about the inhibition (Solanum lycopersicum [3]) of the same molecule?
**A.** inactive

**Q.** What about the inhibition at 1 µM (Allium cepa [4]) of the same molecule?
**A.** -46%

**Q.** What about the inhibition at 100 µM (Hordeum vulgare [5]) of the same molecule?
**A.** > 40%

**Q.** What about the inhibition at 100 µM (Allium cepa [6]; 120 h) of the same molecule?
**A.** < 20%

**Q.** What about the Activity (Solanum lycopersicum [7]) of the same molecule?
**A.** inactive

**Q.** What about the Activity (Hordeum vulgare [8]) of the same molecule?
**A.** >40%

**Q.** And the Activity (Solanum lycopersicum [9])?
**A.** 60%

**Q.** What about the Activity (Lactuca sativa [10]) of the same molecule?
**A.** <20%

**Q.** What about the inhibition (Lepidium sativum [11]) of the same molecule?
**A.** inactive

**Q.** And the Activity (Triticum aestivum [12])?
**A.** inactive

**Q.** What about the inhibition (Triticum aestivum [13]) of the same molecule?
**A.** inactive

**Q.** And the inhibition (Hordeum vulgare [14])?
**A.** inactive

**Q.** What about the inhibition at 100 µM (Solanum lycopersicum [15]) of the same molecule?
**A.** > 40%

**Q.** And the Activity (Lepidium sativum [16])?
**A.** 20%

**Q.** And the Activity (Hordeum vulgare [17])?
**A.** >40%

**Q.** And the Activity (Lepidium sativum [18])?
**A.** <20%

**Q.** And the Activity (Lepidium sativum [19])?
**A.** inactive

**Q.** And the inhibition at 100 µM (Lactuca sativa [20])?
**A.** < 20%

**Q.** And the inhibition at 100 µM (Allium cepa [21]; 120 h)?
**A.** 20%

**Q.** And the inhibition (Lactuca sativa [22])?
**A.** inactive

**Q.** What about the Activity (Lactuca sativa [23]) of the same molecule?
**A.** <20%

**Q.** What about the inhibition at 100 µM (Lactuca sativa [24]) of the same molecule?
**A.** 20%

**Q.** And the Activity (Hordeum vulgare [25])?
**A.** inactive

**Q.** What about the Activity (Triticum aestivum [26]) of the same molecule?
**A.** <20%

**Q.** And the inhibition at 100 µM (Solanum lycopersicum [27])?
**A.** 20%

**Q.** What about the Activity (Triticum aestivum [28]) of the same molecule?
**A.** inactive

**Q.** And the Activity (Allium cepa [29])?
**A.** <20%

**Q.** What about the inhibition at 100 µM (Lactuca sativa [30]) of the same molecule?
**A.** 20%

**Q.** And the inhibition at 100 µM (Lactuca sativa [31])?
**A.** 20%

**Q.** And the Activity (Lactuca sativa [32])?
**A.** 20%

**Q.** What about the inhibition at 100 µM (Hordeum vulgare [33]) of the same molecule?
**A.** > 40%

**Q.** What about the Activity (Solanum lycopersicum [34]) of the same molecule?
**A.** 20%

**Q.** And the inhibition at 100 µM (Lepidium sativum [35])?
**A.** < 20%

**Q.** And the inhibition at 100 µM (Lactuca sativa [36]; 120 h)?
**A.** < 20%

**Q.** What about the inhibition at 100 µM (Allium cepa [37]) of the same molecule?
**A.** 20%

**Q.** And the Activity (Allium cepa [38])?
**A.** 20%

**Q.** What about the Activity (Solanum lycopersicum [39]) of the same molecule?
**A.** >40%

**Q.** What about the Activity (Lactuca sativa [40]) of the same molecule?
**A.** inactive

**Q.** And the Activity (Lactuca sativa [41])?
**A.** 20%

**Q.** What about the Activity (Lactuca sativa [42]) of the same molecule?
**A.** 20%

**Q.** What about the Activity (Allium cepa [43]) of the same molecule?
**A.** 20%

**Q.** What about the inhibition (Triticum aestivum [44]) of the same molecule?
**A.** inactive

**Q.** How did the inhibition (Triticum aestivum [1]) turn out when C[C@]1(C(=O)O)CCC[C@]2(C)C3=CC(=O)OC[C@]34O[C@@H]4C[C@@H]12 was run?
**A.** inactive

**Q.** What about the inhibition at 100 µM (Lepidium sativum [2]) of the same molecule?
**A.** 20%

**Q.** What about the inhibition (Solanum lycopersicum [3]) of the same molecule?
**A.** inactive

**Q.** And the inhibition at 100 µM (Hordeum vulgare [5])?
**A.** > 40%

**Q.** What about the inhibition (Allium cepa [6]) of the same molecule?
**A.** inactive

**Q.** What about the Activity (Solanum lycopersicum [7]) of the same molecule?
**A.** inactive

**Q.** What about the Activity (Hordeum vulgare [8]) of the same molecule?
**A.** 20%

**Q.** What about the Activity (Lactuca sativa [10]) of the same molecule?
**A.** <20%

**Q.** And the inhibition (Lepidium sativum [11])?
**A.** inactive

**Q.** What about the Activity (Triticum aestivum [12]) of the same molecule?
**A.** inactive

**Q.** And the inhibition (Triticum aestivum [13])?
**A.** inactive

**Q.** What about the inhibition (Hordeum vulgare [14]) of the same molecule?
**A.** inactive

**Q.** What about the inhibition at 100 µM (Solanum lycopersicum [15]) of the same molecule?
**A.** 20%

**Q.** And the Activity (Lepidium sativum [16])?
**A.** 20%

**Q.** What about the Activity (Hordeum vulgare [17]) of the same molecule?
**A.** >40%

**Q.** What about the Activity (Lepidium sativum [18]) of the same molecule?
**A.** <20%

**Q.** What about the Activity (Lepidium sativum [19]) of the same molecule?
**A.** inactive

**Q.** What about the inhibition at 100 µM (Lactuca sativa [20]) of the same molecule?
**A.** < 20%

**Q.** What about the inhibition (Allium cepa [21]) of the same molecule?
**A.** inactive

**Q.** And the inhibition at 100 µM (Lactuca sativa [22]; 120 h)?
**A.** < 20%

**Q.** And the Activity (Lactuca sativa [23])?
**A.** inactive

**Q.** And the inhibition at 100 µM (Lactuca sativa [24])?
**A.** < 20%

**Q.** And the inhibition at 0.01 µM (Hordeum vulgare [45])?
**A.** -72%

**Q.** What about the Activity (Hordeum vulgare [25]) of the same molecule?
**A.** inactive

**Q.** And the Activity (Triticum aestivum [26])?
**A.** inactive

**Q.** And the inhibition at 100 µM (Solanum lycopersicum [27])?
**A.** < 20%

**Q.** And the Activity (Triticum aestivum [28])?
**A.** inactive

**Q.** What about the Activity (Allium cepa [29]) of the same molecule?
**A.** inactive

**Q.** What about the inhibition at 100 µM (Lactuca sativa [30]) of the same molecule?
**A.** < 20%

**Q.** And the inhibition at 100 µM (Lactuca sativa [31])?
**A.** < 20%

**Q.** What about the Activity (Lactuca sativa [32]) of the same molecule?
**A.** <20%

**Q.** And the inhibition at 100 µM (Hordeum vulgare [33])?
**A.** 20%

**Q.** What about the Activity (Solanum lycopersicum [34]) of the same molecule?
**A.** <20%

**Q.** And the inhibition at 100 µM (Lepidium sativum [35])?
**A.** < 20%

**Q.** And the inhibition (Lactuca sativa [36])?
**A.** inactive

**Q.** What about the inhibition at 100 µM (Allium cepa [37]) of the same molecule?
**A.** < 20%

**Q.** What about the Activity (Allium cepa [38]) of the same molecule?
**A.** <20%

**Q.** What about the Activity (Solanum lycopersicum [39]) of the same molecule?
**A.** 20%

**Q.** And the Activity (Lactuca sativa [40])?
**A.** <20%

**Q.** What about the Activity (Lactuca sativa [41]) of the same molecule?
**A.** <20%

**Q.** What about the Activity (Lactuca sativa [42]) of the same molecule?
**A.** <20%

**Q.** And the Activity (Allium cepa [43])?
**A.** inactive

**Q.** And the inhibition (Triticum aestivum [44])?
**A.** inactive
